Values quoted from earlier work in US20120190734A1, “COMPOUNDS AND COMPOSITIONS FOR TREATING INFECTION” (priority 2011, published 2012).

Columns and labels:
[1] = test system: herpes simplex virus (HSV-2)
[2] = molecular target: HIV-1 reverse transcriptase (Human immunodeficiency virus type 1 group M subtype B, UniProt P04585)

## COC(=O)c1cc(O)c(O)c(O)c1 [methyl gallate]
[1]
  anti-herpes simplex virus (HSV-2) activity in vitro: exhibited anti-herpes simplex virus (HSV-2) activity

## COc1cc2cc3c(c(-c4ccc5c(c4)OCO5)c2cc1OC)COC3=O [retrojusticiden B]
[2]
  effect on HIV-1 reverse transcriptase activity: inhibitory effect

## Prunellin
HIV-1
  minimum inhibition concentration against HIV-1 in vitro: 2.2 µg/mL

## O=c1cc(-c2ccc(O)cc2)oc2cc(O)cc(O)c12 [5,7,4-truhydroxyflavone]
Influenza virus
  anti-influenza virus activity: anti-influenza virus activity

## O=C(O[C@@H]1O[C@@H]2COC(=O)c3cc(O)c(O)c(O)c3-c3c(cc(O)c(O)c3O)C(=O)O[C@H]2[C@H](OC(=O)c2cc(O)c(O)c(O)c2)[C@H]1OC(=O)c1cc(O)c(O)c(O)c1)c1cc(O)c(O)c(O)c1 [Eugeniin]
[1]
  anti-herpes simplex virus (HSV-2) activity in vitro: exhibited anti-herpes simplex virus (HSV-2) activity

## COCc1cc2cc(OC)c(OC)cc2c(-c2ccc3c(c2)OCO3)c1C=O [phyllamycin B]
[2]
  effect on HIV-1 reverse transcriptase activity: inhibitory effect
